Measured values as given in patent publication US11236042B2, “Methylmenthol derivative and cool-sensation imparter composition containing same” (TAKASAGO INTERNATIONAL CORPORATION, priority 2017, dated 2022).

Assays:
human TRPM8 = molecular target: T1, human TRPM8 (Homo sapiens, UniProt Q7Z2W7); test: Evaluation of human TRPM8 activity (cool-feeling intensity), calcium fluorescence in stable expression cells; format: cell-based; settings: Fluo4-AM, 32° C., read-out: EC50 value in TRPM8 activation action
T1 construct: The full-length human TRPM8 gene was amplified from plasmid RC220615 (manufactured by Origene) using a PCR method; host or cells: Flp-In T-REx 293 cells ('Flp-In293293 cells' [sic]), pcDNA5/FRT/TO, doxycycline-induced
T1 sequence (Q7Z2W7 whole entry): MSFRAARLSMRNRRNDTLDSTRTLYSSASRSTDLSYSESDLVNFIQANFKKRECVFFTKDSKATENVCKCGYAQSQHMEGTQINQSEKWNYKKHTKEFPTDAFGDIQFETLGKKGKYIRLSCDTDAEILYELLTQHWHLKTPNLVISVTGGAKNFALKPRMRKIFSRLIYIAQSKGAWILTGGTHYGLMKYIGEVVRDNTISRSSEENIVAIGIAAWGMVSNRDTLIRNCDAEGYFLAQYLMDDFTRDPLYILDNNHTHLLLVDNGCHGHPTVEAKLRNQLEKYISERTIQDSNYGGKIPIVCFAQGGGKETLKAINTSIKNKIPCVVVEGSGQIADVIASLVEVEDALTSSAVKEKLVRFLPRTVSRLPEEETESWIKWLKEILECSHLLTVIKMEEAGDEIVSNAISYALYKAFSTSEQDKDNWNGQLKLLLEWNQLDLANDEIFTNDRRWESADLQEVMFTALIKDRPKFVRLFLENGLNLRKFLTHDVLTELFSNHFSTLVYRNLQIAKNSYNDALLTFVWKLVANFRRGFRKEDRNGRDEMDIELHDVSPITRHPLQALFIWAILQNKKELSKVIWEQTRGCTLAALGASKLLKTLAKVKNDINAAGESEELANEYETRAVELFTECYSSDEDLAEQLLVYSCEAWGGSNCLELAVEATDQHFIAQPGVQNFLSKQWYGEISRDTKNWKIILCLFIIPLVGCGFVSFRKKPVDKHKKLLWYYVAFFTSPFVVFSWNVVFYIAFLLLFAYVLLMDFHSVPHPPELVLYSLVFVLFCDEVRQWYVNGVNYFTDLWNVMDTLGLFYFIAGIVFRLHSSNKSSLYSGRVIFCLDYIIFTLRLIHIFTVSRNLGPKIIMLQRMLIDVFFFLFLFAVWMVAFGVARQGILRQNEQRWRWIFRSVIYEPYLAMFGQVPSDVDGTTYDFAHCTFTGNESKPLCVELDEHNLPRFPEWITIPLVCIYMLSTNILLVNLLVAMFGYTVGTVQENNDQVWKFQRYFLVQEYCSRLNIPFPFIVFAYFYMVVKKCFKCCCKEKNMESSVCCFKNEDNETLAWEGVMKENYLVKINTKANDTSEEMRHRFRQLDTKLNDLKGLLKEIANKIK
Description: It is common that a compound having a cooling effect such as menthol generally induces a cool-feeling by activating melastatin transient receptor potential channel 8 (TRPM8) as a cold stimulation receptor (for example, see J. Neurobiol. (2004), Vol. 61, PP. 3-12). Therefore, in order to evaluate the cool-feeling intensity, EC50 values of the exemplary compounds obtained in the Examples in TRPM8 activation actions were evaluated according to the following procedures.
The full-length human TRPM8 gene was amplified from plasmid RC220615 (manufactured by Origene) using a PCR method. The obtained PCR product was subcloned into pcDNA5/FRT/TO (manufactured by Thermo Fisher Scientific K.K.), and then it was introduced into Flp-In293293 cells (manufactured by Thermo Fisher Scientific K.K.) by using a Flp-InT-REx system (manufactured by Thermo Fisher Scientific K.K.), so that a human TRPM8 stable expression cell line was prepared.
The cultured human TRPM8 stable expression cells were seeded at a ratio of 50,000 cells/well to a poly-D-lysine-coated 96-well microplate (manufactured by Corning Incorporated), 1 μg/mL of doxycycline (manufactured by Takara Bio Inc.) was added thereto, and then the seeded cells were cultured at 37° C. for one night, so that the expression of the human TRPM8 was induced.
The culture solution was replaced with a buffer solution, and then, a fluorescent calcium indicator (Fluo4-AM: manufactured by Dojindo) was added thereto, the cells were incubated at 37° C. for 30 minutes, and they were transferred to a fluorescent microplate reader (FlexStation3: Molecular Devices, LLC.). Exemplary compounds were added in a final concentration range of 0.1 μM to 1000 μM, and the changes in fluorescence having a wavelength of 525 nm when excited at a wavelength of 485 nm were measured at a device temperature of 32° C., so as to calculate EC50 values.

[1] = Sensory evaluation of 30 ppm aqueous solution by three flavorists; format: in vivo, human; settings: for intensity of cool-feeling: mouth rinsed and spat out; for intensity of cool-feeling compared with comparative compounds: 30 ppm aqueous solutions
Description: The sensory evaluation was performed by comparing the exemplary compound (1-1) with the so far known comparative compounds 1 to 4. Comparative compounds 1, 3, and 4 were synthesized according to the method described in WO 2016/153011 A1, and comparative compound 2 was synthesized according to the method described in WO 2005/020897 A1. The exemplary compound (1-1) and comparative compounds 1 to 4 were separately prepared into a 30 ppm aqueous solution, and the aqueous solution was used to perform the evaluation.
The evaluation was performed by three flavorists. The aqueous solution was taken into the mouth and spat out after the mouth was rinsed, and intensity, persistence, and quality of a cool-feeling in the oral cavity were evaluated.
A 30 ppm aqueous solution of the exemplary compound (1-2) was prepared and used to perform the evaluation.
A 30 ppm aqueous solution of the exemplary compound (1-3) was prepared and used to perform the evaluation.
A 30 ppm aqueous solution of the exemplary compound (1-5) was prepared and used to perform the evaluation.

Row | SMILES | EC50 (human TRPM8) | melting point | further results
1 | CC(C)[C@@H]1CC[C@@H](C)CC1C(=O)NCC(O)c1ccccc1 (stereo partly shown) [Comparative compound 2, reference compound] |  |  | persistence of cool-feeling ([1]; 30 ppm aqueous solution): persistent; intensity of cool-feeling ([1]; 30 ppm aqueous solution): very strong; intensity of cool-feeling compared with comparative compounds [1]: same cooling intensity and persistence as those of the exemplary compound (1-1)
2 | CC(C)C1CCC(C)(C)CC1C(=O)NCC(O)c1ccccc1 (stereo not shown) [Exemplary Compound 1-1, N-(2-hydroxy-2-phenylethyl)-2-isopropyl-5,5-dimethyl cyclohexane carboxamide] |  |  | persistence: cool-feeling lasted for ([1]; 30 ppm aqueous solution): ≥ 60 min; start of the cool-feeling ([1]; 30 ppm aqueous solution): clearly faster than the comparative compounds 1 to 4; intensity of cool-feeling ([1]; 30 ppm aqueous solution): very strong; intensity of cool-feeling compared with comparative compounds [1]: clearly stronger than those of the comparative compounds 3 and 4
3 | CC(C)C1CCC(C)(C)CC1C(=O)NC[C@@H](O)c1ccccc1 (stereo partly drawn) [Exemplary Compound 1-2, N—((S)-2-hydroxy-2-phenylethyl)-2-isopropyl-5,5-dimethyl cyclohexane carboxamide] |  |  | persistence: cool-feeling lasted for ([1]; 30 ppm aqueous solution): ≥ 90 min; start of the cool-feeling ([1]; 30 ppm aqueous solution): strong cool-feeling was felt when the exemplary compound (1-2) was put in the mouth; intensity of cool-feeling ([1]; 30 ppm aqueous solution): very strong
4 | CC(C)C1CCC(C)(C)CC1C(=O)NC[C@H](O)c1ccccc1 (stereo partly drawn) [Exemplary Compound 1-3, N—((R)-2-hydroxy-2-phenylethyl)-2-isopropyl-5,5-dimethyl cyclohexane carboxamide] |  |  | persistence: cool-feeling lasted for ([1]; 30 ppm aqueous solution): ≥ 60 min; start of the cool-feeling ([1]; 30 ppm aqueous solution): strong cool-feeling was felt when the exemplary compound (1-3) was put in the mouth; intensity of cool-feeling ([1]; 30 ppm aqueous solution): very strong
5 | CC(C)C1CCC(C)(C)CC1C(=O)NCC(=O)c1ccccc1 (stereo not shown) [Exemplary Compound 1-5, 2-isopropyl-5,5-dimethyl-N-(2-oxo-2-phenylethyl) cyclohexane carboxamide] |  | 85 to 88 °C | persistence: cool-feeling lasted for ([1]; 30 ppm aqueous solution): ≥ 60 min; start of the cool-feeling ([1]; 30 ppm aqueous solution): gradually felt strongly; intensity of cool-feeling ([1]; 30 ppm aqueous solution): very strongly at the peak time
6 | CC(CNC(=O)C1CC(C)(C)CCC1C(C)C)c1ccccc1 (stereo not shown) [Exemplary Compound 1-6, 2-isopropyl-5,5-dimethyl-N-(2-phenylpropyl) cyclohexane carboxamide] |  | 80 to 85 °C | 
7 | CC(C)C1CCC(C)(C)CC1C(=O)NC[C@@H](C)c1ccccc1 (stereo partly drawn) [Exemplary Compound 1-7, 2-isopropyl-5,5-dimethyl-N—((S)-2-phenylpropyl) cyclohexane carboxamide] |  | 125 to 133 °C | 
8 | CC(C)C1CCC(C)(C)CC1C(=O)NC[C@H](C)c1ccccc1 (stereo partly drawn) [Exemplary Compound 1-8, 2-isopropyl-5,5-dimethyl-N—((R)-2-phenylpropyl) cyclohexane carboxamide] |  | 127 to 134 °C | 
9 | CC(C)C1CCC(C)(C)CC1C(=O)NCCc1ccc(O)cc1 (stereo not shown) [Exemplary Compound 1-9, N-(4-hydroxyphenylethyl)-2-isopropyl-5,5-dimethyl cyclohexane carboxamide] |  | 183 to 190 °C | 
10 | COc1ccc(CCNC(=O)C2CC(C)(C)CCC2C(C)C)cc1 (stereo not shown) [Exemplary Compound 1-10, 2-isopropyl-N-(4-methoxyphenylethyl)-5,5-dimethyl cyclohexane carboxamide] |  | 86 to 88 °C | 
11 | COc1ccc(CCNC(=O)C2CC(C)(C)CCC2C(C)C)cc1OC (stereo not shown) [Exemplary Compound 1-12, N-(3,4-dimethoxyphenylethyl)-2-isopropyl-5,5-dimethyl cyclohexane carboxamide] |  | 85 to 89 °C | 
12 | CC(C)C1CCC(C)(C)CC1C(=O)NCCc1ccccc1 (stereo not shown) [Exemplary Compound 1-13, 2-isopropyl-5,5-dimethyl-N-phenylethyl cyclohexane carboxamide] |  | 90 to 93 °C | 

Continued, in another order:

Row | EC50 (human TRPM8) | melting point | SMILES | further results
13 | 41 nM |  | CC(C)C1CCC(C)(C)CC1C(=O)NCC(O)c1ccccc1 (stereo not shown) [1-1] | 
14 | 24.1 nM |  | CC(C)C1CCC(C)(C)CC1C(=O)NC[C@@H](O)c1ccccc1 (stereo partly shown) [1-2] | 
15 | 73.6 nM |  | CC(C)C1CCC(C)(C)CC1C(=O)NC[C@H](O)c1ccccc1 (stereo partly shown) [1-3] | 
16 | 541 nM |  | CC(=O)OC(CNC(=O)C1CC(C)(C)CCC1C(C)C)c1ccccc1 (stereo not shown) [1-4] | 
17 | 149 nM |  | CC(C)C1CCC(C)(C)CC1C(=O)NCC(=O)c1ccccc1 (stereo not shown) [1-5] | 
18 | 388 nM |  | CC(CNC(=O)C1CC(C)(C)CCC1C(C)C)c1ccccc1 (stereo not shown) [1-6] | 
19 | 555 nM |  | CC(C)C1CCC(C)(C)CC1C(=O)NC[C@@H](C)c1ccccc1 (stereo partly shown) [1-7] | 
20 | 610 nM |  | CC(C)C1CCC(C)(C)CC1C(=O)NC[C@H](C)c1ccccc1 (stereo partly shown) [1-8] | 
21 | 29.8 nM |  | CC(C)C1CCC(C)(C)CC1C(=O)NCCc1ccc(O)cc1 (stereo not shown) [1-9] | 
22 | 158 nM |  | COc1ccc(CCNC(=O)C2CC(C)(C)CCC2C(C)C)cc1 (stereo not shown) [1-10] | 
23 | 113 nM |  | CC(C)C1CCC(C)(C)CC1C(=O)NCCc1ccc(O)c(O)c1 (stereo not shown) [1-11] | 
24 | 403 nM |  | COc1ccc(CCNC(=O)C2CC(C)(C)CCC2C(C)C)cc1OC (stereo not shown) [1-12] | 
25 | 50.2 nM |  | CC(C)C1CCC(C)(C)CC1C(=O)NCCc1ccccc1 (stereo not shown) [1-13] | 
